# Results: patent US6521764B1, “Process for the preparation of fumagillin” (Sanofi-Synthelabo, priority 1999, dated 2003)
# Columns and labels:
# [1] = 2-week stability study of Fumagillin samples obtained by various methods, Fumagillin content by HPLC before and after stressing; assay type: physicochemical; settings: for HPLC Assay, After 2 weeks at 40° C., ambient humidity / HPLC Assay, Initial: 3 equivalent acetic acid; for HPLC Assay, Initial: before stressing
# Method: We carried out a 2-week stability study at 40 OC , ambient humidity, of selected samples obtained by various methods. The Fumagillin content of the samples was measured by HPLC before and after the stressing.
# [2] = at -80 °C; cited from earlier work
# [3] = sample liberated from methanol, crude product
# [4] = sample liberated from methanol-dichloromethane 5:1, crude product
# [5] = sample liberated from toluene, crude product
# [6] = sample liberated in aqueous medium, followed by extraction with dichloromethane, concentration and crystallization in methanol
compound,measurement,setting,value
CO[C@@H]1[C@H](OC(=O)/C=C/C=C/C=C/C=C/C(=O)O)CC[C@]2(CO2)[C@H]1[C@@]1(C)O[C@@H]1CC=C(C)C [Fumagillin],"HPLC Assay, After 2 weeks at 40° C., ambient humidity",[1]; [3],85.1%
same,"HPLC Assay, Initial",[1]; [3],97.6%
same,"HPLC Assay, After 2 weeks at 40° C., ambient humidity",[1]; [4],49.9%
same,"HPLC Assay, Initial",[1]; [4],96.3%
same,"HPLC Assay, After 2 weeks at 40° C., ambient humidity",[1]; [5],61.0%
same,"HPLC Assay, Initial",[1]; [5],92.6%
same,"HPLC Assay, After 2 weeks at 40° C., ambient humidity",[1]; [6],54.9%
same,"HPLC Assay, Initial",[1]; [6],96.9%
same,Stability compared with samples obtained by other methods,"[1]; samples obtained by the alcoholic method, 2 weeks at 40 °C, ambient humidity",considerably more stable
same,Stability on storage,[2],stable
